Assay [1] concerns C. difficile spores (ATCC #43596). The experiment in a line: Hamster C. difficile infection (CDAD) protection model. The format is in vivo, Syrian golden hamsters. Particulars: oral 0.5 mg/kg once daily for 5 days (MET 70 mg/kg three times daily for 5 days). The procedure:
Syrian golden hamsters were pretreated with 10 mg/kg clindamycin subcutaneously 24 hours before bacterial challenge. An inoculum of 20 C. difficile spores (ATCC #43596) in sterile saline was administered orally. Treatment was initiated 4 hours post-inoculation with dH2O, metronidazole (MET), vancomycin (VAN), or a compound of the present invention. Oral dosing regimens for VAN and compounds of Formula I were 0.5 mg/kg once daily for 5 days. MET was administered at 70 mg/kg three times daily for 5 days. CDAD was confirmed as the cause of death by observations at necropsy, including wet tail and/or macroscopic cecal alterations. The % protection provided by each therapy tested was calculated at 1 and 21 days post-dosing.

The subject of another assay is gram positive bacteria. The assay can be described thus: Antimicrobial activity against a panel of organisms, summary statements. In kind it is cell-based. Particulars: statement in words. As for the experimental part: Compounds according to Formula I were tested for antimicrobial activity against a panel of organisms. Aerobic organisms, Staphylococcus aureus, Enterococcus faecalis and E. faecium, were tested by broth microdilution according to Clinical and Laboratory Standards Institute (CLSI) document M7-A7 (Clinical and Laboratory Standards Institute. Methods for Dilution Antimicrobial Susceptibility Tests for Bacteria that Grow Aerobically; Approved Standard—Seventh Edition. CLSI document M7-A7 [ISBN 1-56238-587-9]. Clinical and Laboratory Standards Institute, 940 West Valley Road, Suite 1400, Wayne, Pa. 19087-1898 USA, 2006) with modifications as described below. Mueller Hinton Broth (MHBc) was supplemented with 50 mg/L calcium (equivalent to human physiological levels of calcium) and assay plates were incubated 18-20 hours at 37° C. with aeration (200 rpm).
In all cases the final concentration of dimethyl sulfoxide incubated with cells is less than or equal to 1%. For minimum inhibitory concentration (MIC) calculations, 2-fold dilutions of compounds were added to wells of a microtiter plate containing 5×10^5 bacteria in a final volume of 100 μL of media. Following incubation, (18-20 hours at 37° C. with aeration at 200 rpm) growth was confirmed visually by placing plates over a viewing apparatus (stand with a mirror underneath) and then the optical density (OD600) was measured using a SpectraMax 340PC^384 plate reader. Growth was defined as turbidity that could be detected with the naked eye or achieving minimum OD600of 0.1. MIC values (in μg/mL) were defined as the lowest concentration producing no visible turbidity.

The subject of assay [2] is Enterococcus faecium EFM.384, Daptomycin resistant mutant (14-A). In kind it is cell-based. Particulars: MHBc with 50 mg/L calcium, 18-20 hours at 37° C. The method, boiled down: (§1)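 Broth microdilution per CLSI M7-A7 in Mueller Hinton broth supplemented with 50 mg/L calcium; 2-fold compound dilutions, 5×10^5 bacteria per well, DMSO ≤1% final, 18-20 h at 37° C with aeration (200 rpm). MIC (μg/mL) = lowest concentration with no visible turbidity (growth: visible turbidity or OD600 ≥0.1).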

The subject of assay [3] is Staphylococcus aureus SAU.42 (ATCC 29213). The format is cell-based. The method, boiled down:
as §1

Assay [4] deals with Enterococcus faecalis EFS.312, Daptomycin resistant mutant (EFA). The format is cell-based. Particulars: MHBc with 50 mg/L calcium, 18-20 hours at 37° C. The method, boiled down:
as §1

For assay [5], the system named is Staphylococcus aureus SAU.278, Daptomycin resistant mutant (D10). The format is cell-based. Particulars: MHBc with 50 mg/L calcium, 18-20 hours at 37° C. The method, boiled down:
as §1

Assay [6] has as its system Enterococcus faecium EFM.14 (ATCC 6569). In kind it is cell-based. The method, boiled down:
as §1

Assay [7] relates to Enterococcus faecalis EFS.201 (ATCC 49452). The format is cell-based. The method, boiled down: as §1
Assay [8] concerns Staphylococcus aureus SAU.399 (ATCC 43300), Methicillin and Oxacillin Resistant. The format is cell-based. The method, boiled down:
as §1

Where [9] appears, read: MHBc with 50 mg/L calcium, 18-20 hours at 37° C.

Values joined by “and” are separate entries in the source; they are usually repeats but may differ in a detail not shown here. Equal entries are not always repeated. Where two headings read alike, the source gives them in different places. Some results are limits rather than exact numbers.

Turning to `Cc1ncc([N+](=O)[O-])n1CCO` [Metronidazole, 2-methyl-5-nitro-1H-imidazole-1-ethanol, reference compound], in [1], the “Mean % Protection 1 Day Post Dosing” value is reported as 100% and the “Mean % Protection 21 Days Post Dosing” value worked out at 0%.
As for `CCCCCC1CCC(C(=O)N[C@@H](Cc2c[nH]c3ccccc23)C(=O)N[C@H](CC(N)=O)C(=O)N[C@@H](CC(=O)O)C(=O)N[C@@H]2C(=O)NCC(=O)N[C@@H](CCCN)C(=O)N[C@@H](CC(=O)O)C(=O)N[C@H](C)C(=O)N[C@@H](CC(=O)O)C(=O)NCC(=O)N[C@H](CO)C(=O)N[C@@H]([C@H](C)CC(=O)O)C(=O)N[C@@H](CC(=O)c3ccccc3N)C(=O)O[C@@H]2C)CC1` (some centres unmarked) [Compound 16], the “as active or more active than daptomycin” value with gram positive bacteria was “as active or more active than daptomycin”. In addition, in assay [1], the “Mean % Protection 1 Day Post Dosing” value is 100% and the “Mean % Protection 21 Days Post Dosing” value was 85%. The “Efm384 MIC” value in [2] is 32 µg/mL and 16 µg/mL. For the same molecule, the “Sa42 MIC” value in assay [3] (ATCC 29213) amounted to 0.5 µg/mL. For the same molecule, the “Efs312 MIC” value in assay [4] is 16 µg/mL and >32 µg/mL. The “Sa278 MIC” value in assay [5] amounted to 8 µg/mL.
On to `C[C@H](CC(=O)O)[C@@H]1NC(=O)[C@@H](CO)NC(=O)CNC(=O)[C@H](CC(=O)O)NC(=O)[C@@H](C)NC(=O)[C@H](CC(=O)O)NC(=O)[C@H](CCCN)NC(=O)CNC(=O)[C@@H](NC(=O)[C@H](CC(=O)O)NC(=O)[C@@H](CC(N)=O)NC(=O)[C@H](Cc2c[nH]c3ccccc23)NC(=O)C2CCCCCCCCCCC2)[C@@H](C)OC(=O)[C@H](CC(=O)c2ccccc2N)NC1=O` [Compound 28, N-cyclododecanecarbonyl-L-tryptophyl-D-asparaginyl-L-α-aspartyl-L-threonylglycyl-L-ornithyl-L-α-aspartyl-D-alanyl-L-α-aspartylglycyl-D-seryl-(3R)-3-methyl-L-α-glutamyl-(αS)-α,2-diamino-γ-oxobenzenebutanoic acid (13→4)-lactone], for which, in the assay with gram positive bacteria, the “as active or more active than daptomycin” value was “as active or more active than daptomycin”. For the same molecule, in assay [1], the “Mean % Protection 1 Day Post Dosing” value was 100% and the “Mean % Protection 21 Days Post Dosing” value is 100%. Further, in the assay on Clostridium difficile, the “C. diff MIC90” value came out at 4 µg/mL. For the same molecule, the “Efm384 MIC” value in assay [2] amounted to 32 µg/mL. The “Efs312 MIC” value in assay [4] is over 32 µg/mL. For the same molecule, the “Sa278 MIC” value in assay [5] is 4 µg/mL and 8 µg/mL.
Consider `CN[C@H](CC(C)C)C(=O)N[C@H]1C(=O)N[C@@H](CC(N)=O)C(=O)N[C@H]2C(=O)N[C@H]3C(=O)N[C@H](C(=O)N[C@H](C(=O)O)c4cc(O)cc(O)c4-c4cc3ccc4O)[C@H](O)c3ccc(c(Cl)c3)Oc3cc2cc(c3O[C@@H]2O[C@H](CO)[C@@H](O)[C@H](O)[C@H]2O[C@H]2C[C@](C)(N)[C@H](O)[C@H](C)O2)Oc2ccc(cc2Cl)[C@H]1O` [Vancomycin, vancomycin, reference compound], for which, in assay [1], the “Mean % Protection 1 Day Post Dosing” value was 90% and the “Mean % Protection 21 Days Post Dosing” value was determined as 62%.
In the case of `CCCCCCCCCCCCCCCOc1ccc(C(=O)N[C@@H](Cc2c[nH]c3ccccc23)C(=O)N[C@H](CC(N)=O)C(=O)N[C@@H](CC(=O)O)C(=O)N[C@@H]2C(=O)NCC(=O)N[C@@H](CCCN)C(=O)N[C@@H](CC(=O)O)C(=O)N[C@H](C)C(=O)N[C@@H](CC(=O)O)C(=O)NCC(=O)N[C@H](CO)C(=O)N[C@@H]([C@H](C)CC(=O)O)C(=O)N[C@@H](CC(=O)c3ccccc3N)C(=O)O[C@@H]2C)cc1` [Compound 40], in the assay on Clostridium difficile, the “C. diff MIC90” value was found to be 32 µg/mL. Further, the “Efm14 MIC” value in assay [6] (setting [9]) was 32.0 µg/mL. Also, the “Efm384 MIC” value in assay [2] was found to be 32 µg/mL. Also, the “Sa42 MIC” value in assay [3] (setting [9]) stood at 4.00 µg/mL. The “Efs201 MIC” value in assay [7] (setting [9]) was 4.0 µg/mL. For the same molecule, the “Efs312 MIC” value in assay [4] was determined as 8 µg/mL. In addition, the “Sa278 MIC” value in assay [5] is 16.00 µg/mL. Besides, the “Sa399 MIC” value in assay [8] (setting [9]) turned out to be 4.000 µg/mL.
Consider `CCCCCCCCCCCCC(=O)N[C@@H](Cc1c[nH]c2ccccc12)C(=O)N[C@H](CC(N)=O)C(=O)N[C@@H](CC(=O)O)C(=O)N[C@@H]1C(=O)NCC(=O)N[C@@H](CCCN)C(=O)N[C@@H](CC(=O)O)C(=O)N[C@H](C)C(=O)N[C@@H](CC(=O)O)C(=O)NCC(=O)N[C@H](CO)C(=O)N[C@@H]([C@H](C)CC(=O)O)C(=O)N[C@@H](CC(=O)c2ccccc2N)C(=O)O[C@@H]1C` [Compound 5], for which the “C. diff MIC90” value in the assay on Clostridium difficile was 8 µg/mL. In addition, the “Efm14 MIC” value in assay [6] (ATCC 6569) was found to be 0.5 µg/mL. In addition, in assay [2], the “Efm384 MIC” value stood at 8 µg/mL. The “Sa42 MIC” value in [3] (ATCC 29213) came out at 0.5 µg/mL. The “Efs201 MIC” value in assay [7] (ATCC 49452) is 0.5 µg/mL. For the same molecule, the “Efs312 MIC” value in assay [4] stood at 8 µg/mL. For the same molecule, the “Sa278 MIC” value in assay [5] came to 2 µg/mL. For the same molecule, in [8] (ATCC 43300), the “Sa399 MIC” value stood at 0.5 µg/mL.
Take `CC(C)CCCCCCCCCC(=O)N[C@@H](Cc1c[nH]c2ccccc12)C(=O)N[C@H](CC(N)=O)C(=O)N[C@@H](CC(=O)O)C(=O)N[C@@H]1C(=O)NCC(=O)N[C@@H](CCCN)C(=O)N[C@@H](CC(=O)O)C(=O)N[C@H](C)C(=O)N[C@@H](CC(=O)O)C(=O)NCC(=O)N[C@H](CO)C(=O)N[C@@H]([C@H](C)CC(=O)O)C(=O)N[C@@H](CC(=O)c2ccccc2N)C(=O)O[C@@H]1C` [Compound 10]: the “C. diff MIC90” value in the assay with Clostridium difficile came out at 1 µg/mL. In addition, in assay [6] (ATCC 6569), the “Efm14 MIC” value was 1 µg/mL. The “Efm384 MIC” value in [2] is 4 µg/mL. The “Sa42 MIC” value in assay [3] (ATCC 29213) came to 0.25 µg/mL. Besides, the “Efs201 MIC” value in assay [7] (ATCC 49452) stood at 0.13 µg/mL. Besides, the “Efs312 MIC” value in assay [4] is over 32 µg/mL. In assay [5], the “Sa278 MIC” value worked out at 1 µg/mL. In addition, in assay [8] (ATCC 43300), the “Sa399 MIC” value was 0.25 µg/mL.
As to `CCCCCCCOc1ccc(-c2ccc(C(=O)N[C@@H](Cc3c[nH]c4ccccc34)C(=O)N[C@H](CC(N)=O)C(=O)N[C@@H](CC(=O)O)C(=O)N[C@@H]3C(=O)NCC(=O)N[C@@H](CCCN)C(=O)N[C@@H](CC(=O)O)C(=O)N[C@H](C)C(=O)N[C@@H](CC(=O)O)C(=O)NCC(=O)N[C@H](CO)C(=O)N[C@@H]([C@H](C)CC(=O)O)C(=O)N[C@@H](CC(=O)c4ccccc4N)C(=O)O[C@@H]3C)cc2)cc1` [Compound 63], the “C. diff MIC90” value in the assay with Clostridium difficile was 2 µg/mL. In addition, the “Efm14 MIC” value in [6] (setting [9]) was 1 µg/mL. In assay [2], the “Efm384 MIC” value came to 1 µg/mL. The “Sa42 MIC” value in assay [3] (setting [9]) came out at 0.25 µg/mL. Further, the “Efs201 MIC” value in assay [7] (setting [9]) came to 0.5 µg/mL. For the same molecule, the “Efs312 MIC” value in assay [4] is 4 µg/mL. Also, the “Sa278 MIC” value in assay [5] was determined as 0.25 µg/mL. Besides, the “Sa399 MIC” value in assay [8] (setting [9]) came to 0.25 µg/mL.

For the origin of these results see patent US20150337013A1, “NOVEL ANTIBACTERIAL AGENTS FOR THE TREATMENT OF GRAM POSITIVE INFECTIONS” (priority 2008, published 2015).
